According to a melting point compilation (Tetko et al.; mined from patent text by program, amines drawn as free bases though some values may be those of a salt):

Row | melting point [°C] | SMILES
1 | 108 | CCCCOC(=O)c1ccc2ccc(C=O)nc2c1OC(=O)C(C)(C)C
2 | 233 to 234 | CS(=O)(=O)c1ccc(-c2nn(Cc3ccc(Cl)cc3Cl)c(=O)cc2-c2ccc(Cl)cc2)cc1
3 | 69 | Cc1nc(COc2cccc(Cl)c2C)no1
4 | 115 to 118 | O=C(O)c1cc(NC(=O)C(CS)Cc2cccnc2)cs1 (centres undefined)
5 | 32 to 32.5 | COc1cc(N)c2nccc(C)c2c1OCCCCCCCCCc1ccccc1
6 | 110 to 114 | Cc1cc(F)ccc1NC(=O)CCC#Cc1ccccn1
7 | 181 to 182 | CN(C)c1ncc(-c2cccc(Nc3ccc(-c4ccoc4)cc3[N+](=O)[O-])c2)cn1
8 | 130 to 131 | CC1CCCN1CCCN1CCN(C2CCN(Cc3ccccc3)CC2)C1=C(C#N)C#N (centres undefined)
9 | 82 to 83 | CCOC(=O)Cc1nc(-c2ccccc2)n(C)n1
10 | 263 to 264 | O=C(NCC12CC3CC(CC(C3)C1)C2)c1cc(O)ccc1Cl
11 | 207 to 208 | CNC(=O)c1ccc(O[C@H]2CC[C@@H](NC(=O)Nc3ccc(OC(F)(F)F)cc3)CC2)cc1
12 | 56 to 58 | COC(=O)c1ccc(OCCCl)cc1
13 | 41 to 46 | CC(C#N)c1ccc(O)cc1 (centres undefined)
14 | 127 | CCOC(=O)c1c[nH]c(=O)s1
15 | 191 | COc1ccc(Cc2c[nH]c(=O)c3ccccc23)cn1
16 | 195 to 196 | CS(=O)(=O)c1ccc(-c2c(-c3ccc(F)cc3)c(OCc3c(F)cccc3Cl)nn2Cc2c(F)cccc2Cl)cc1
17 | 67 | O=C1NC(=O)C(Cc2ccc(OCCN3C(=O)SC(c4ccccc4)C3=O)cc2)S1 (centres undefined)
18 | 128 to 131 | COc1ccc(Cc2cc(C3CCN(C(=O)NCc4ccccc4)CC3)nc(N)n2)cc1
19 | 108 to 121 | CCC(C)n1ccnc1S (centres undefined)
20 | 179 to 181 | Cc1ccc(Cn2cccc2C(=O)CC(=O)C(=O)O)cc1
21 | 69 to 70 | COC(=O)c1cnc(C(=O)OC)c2ccccc12
22 | 120 to 122 | CCN1CCCCC1CCc1ccccc1NC(=O)C=Cc1ccccc1 (centres undefined)
23 | 51.5 to 53 | Nc1c(Cl)cc(C(O)CNCCCCCCOCCc2ccccn2)cc1C(F)(F)F (centres undefined)
24 | 280 to 282 | COc1ccc(OC)c(-c2c(O)c3ccc(Cl)cc3[nH]c2=O)c1
25 | 202 to 204 | COc1cc(C#N)ccc1-c1cc(-c2cccc(C#N)c2)on1

Row | melting point [°C] | SMILES
26 | 93 to 96 | COC(=O)CCc1cc2cc(Cl)ccc2n1S(=O)(=O)c1ccccc1
27 | 50 to 54 | N#CC=C(N)c1cccs1
28 | 153 to 155 | COc1ccc(C(C)=O)c(CC(=O)O)c1
29 | 160 to 161 | COc1c2c(c(OC)c(OC)c1OC)CC(CCCOc1ccc(C(=O)O)cc1)C2
30 | 140 to 145 | O=C=NC(=O)SCc1ccccc1
31 | 93 to 97 | CN(Cc1cc2c(=O)c(C(=O)NCc3ccc(Cl)cc3)cn(C)c2o1)CC(O)c1ccoc1 (centres undefined)
32 | 140 to 142 | CCOC(=O)c1ccc(N2CCC(NCC(O)COc3cccc([N+](=O)[O-])c3N)CC2)nc1 (centres undefined)
33 | 74 | Cc1ccc(CCCCOCCCCCCNCC(O)c2ccc3c(n2)COC(c2ccccc2)O3)cc1 (centres undefined)
34 | 238 to 243 | ClCc1c2ccccc2c(CCl)c2ccccc12
35 | 283 to 286 | O=C(O)c1cc(C(=O)O)cc(P(=O)(c2ccccc2)c2ccccc2)c1
36 | 136 to 137 | Cc1cccc(-c2c(CBr)n(C)c(=O)n(C)c2=O)c1
37 | 171 to 172 | CCc1ccc2c(c1)N(Cc1ccc(-c3ccccc3C#N)cc1)C(=O)CC2(C)C
38 | 250 to 252 | CC(C)(CO)c1ccc(C(=O)Nc2cn3cc(-c4ccsc4)ccc3n2)cc1
39 | 92 to 94 | CN1CCC(c2ccc(OC(C)(C)CO)cc2)c2ccccc21 (centres undefined)
40 | 84 to 85 | C=C(c1nc2ccccc2s1)C1CCN(CCc2ccc(OC)cc2)CC1
41 | 208 | N=C(N)Nc1ccc(Cl)c(Cl)c1
42 | 34.8 to 35.8 | O=C(Br)c1ccc(F)c(Br)c1
43 | 103 to 106 | COc1ccc2[nH]cc(C3CCC(=O)CC3)c2c1
44 | 167 | O=C1N(c2cc(Cl)nc(Cl)c2)C(=O)[C@]2(Cc3ccc(OC(F)(F)F)cc3)C[C@@H](c3cc[nH]c3C(=O)C(F)(F)F)CN12
45 | 137 | COc1ccc(N2CCN(c3cccc(C)c3)CC2)nn1
46 | 88 to 89 | CCCCOC(=O)N1C(=O)[C@H](O)[C@@H]1c1ccccc1
47 | 114 to 115 | COc1ccc(C(=O)c2cc(Br)c(OC)cc2OC)c(F)c1
48 | 143 to 145 | c1ccc(COC2CCN(Cc3c[nH]c4ccccc34)CC2)cc1
49 | 228 to 230 | CN1C(=O)NC(c2ccccc2)c2cc3c(cc21)OCO3 (centres undefined)
50 | 104 to 105 | O=C(O)CSCCCCCCNS(=O)(=O)c1ccc(Cl)cc1

Row | melting point [°C] | SMILES
51 | 170 to 171 | CC1(CC(=O)O)OCCc2c1[nH]c1ccc(O)cc21 (centres undefined)
52 | 186 to 187 | O=C1COc2ccc(NC(=O)C(=O)N3CCC(Cc4ccccc4)CC3)cc2N1
53 | 118 to 120 | COc1ccc(S(=O)(=O)C(CCCc2ccccc2)(CCCc2ccccc2)C(=O)O)cc1
54 | 164 to 166 | CS(=O)CC(=O)c1ccon1 (centres undefined)
55 | 191 | Cc1cccc(-c2n[nH]cc2-c2ccnc(-c3ccc(OCc4cn(C)cn4)cc3)c2)n1
56 | > 300 | Cc1ccc2c(=O)cc(C(N)=O)oc2c1
57 | 191 to 193 | CC(=O)N1CC[C@H](Oc2ccc(C=Cc3cc4cc(C#N)ccc4o3)cc2O)C1
58 | 186 to 187 | CC(C)COc1ccccc1-c1ncc(C#N)c(=O)[nH]1
59 | 94 to 95 | CCCCCCc1cc2c(cc1C(=O)Oc1ccc(C(=O)OCc3ccccc3)cn1)C(C)(C)CCC2(C)C
60 | > 310 | Cc1ccc(S(=O)(=O)N(C(N)=O)c2cccc(Br)n2)cc1
61 | 146 to 149 | COC(=O)/C=C/CSc1nc(N)cc(Cl)n1
62 | 205 to 210 | COc1ccc2c(c1)C(=O)N(c1cc3ccn(C)c3cn1)C2
63 | 184 to 186 | Cc1noc(NS(=O)(=O)c2ccccc2-c2c[nH]c3ccccc23)c1C
64 | 63 to 64 | COc1cc(OC(=O)c2ccccc2)c2ccccc2c1OC(=O)c1ccccc1
65 | 99 to 100 | Cc1cc(NC(=O)OC(C)(C)C)c([N+](=O)[O-])cc1I
66 | 172 to 173 | O=C(N[C@H](Cc1cccc(OCC(F)(F)F)c1)[C@@H](O)c1ccc(F)cc1)c1cccc2c1C=CCCC2 (racemic)
67 | 215 to 216 | O=C(O)c1cc(F)c(F)cc1Nc1ccc(F)cc1F
68 | 234 to 236 | O=C1COc2ccc(C3=Nc4cc(Cl)ccc4SC3c3ccccc3)cc2N1 (centres undefined)
69 | 117 to 120 | COC(=O)C1=Cc2cc(-c3ccc(OC)cc3)ccc2SCC1
70 | 118 to 119 | O=c1oc(-c2cccc(C(F)(F)F)c2)nc2ccc(F)cc12
71 | 159 to 162 | CCOC(=O)C(=Cc1c[nH]c2cc(C)ccc12)NC(C)=O
72 | 158 to 160 | COc1ccc(-c2cc(CO)c(=O)n(CC=Cc3ccc(Cl)cc3)n2)cc1F
73 | 198 | CCSc1nsc(NC(=O)N(C)C)c1C#N
74 | 145 to 148 | CC1(C)OC[C@H](COn2cnc3c(Cl)nc(NC=O)nc32)O1
75 | 128 | CC1C(C(=O)O)CC2CC1C2(C)C (single isomer, unassigned; (+))

Row | melting point [°C] | SMILES
76 | 172 to 178 | Cc1ccc(S(=O)(=O)OC(=O)c2cccc(C(=O)OS(=O)(=O)c3ccc(C)cc3)c2)cc1
77 | 60 to 65 | COC(=O)[C@H](Cc1ccc(OCCN2CCCCCC2)cc1)NC(=O)[C@@H]1CCCN1S(=O)(=O)c1ccc(C)cc1
78 | 44 to 46 | CS(=O)(=S)OCCC(=O)O (centres undefined)
79 | 208 to 210 | CC1(C)C(=O)N(c2ccccc2)C(=S)N1c1ccc(OCc2ccccc2)cc1
80 | 120 to 122 | CC(C)CCCC(C)C1CCC2C3CC=C4CC(OC(=O)C(C)O)CCC4(C)C3CCC12C (centres undefined)
81 | 139 to 140 | CCOC(=O)c1nc2c(C(=O)OCC)cccn2c1[N+](=O)[O-]
82 | 90.4 to 93.4 | CCCC(=O)OC(C)OC(=O)NC1(C(=O)O)CC1 (centres undefined)
83 | 89 to 90 | CCC1(Cc2ccccc2)CCNC1=O (centres undefined)
84 | 96 to 97 | O=C(Cl)c1ccc(C(c2ccc(C(=O)Cl)cc2)(C(F)(F)F)C(F)(F)F)cc1
85 | 85 to 87 | CCCSc1cc(C(=O)O)cc(S(N)(=O)=O)c1-c1ccccc1
86 | 149 to 152 | Cc1cccc(C2(Cn3cncn3)CC(COc3ccccc3[N+](=O)[O-])ON2C)c1 (centres undefined)
87 | 95 to 96 | COCNC(=S)n1nc(Oc2c(Cl)cc(C(F)(F)F)cc2Cl)cc1C
88 | 99 | COc1ccccc1-c1n[nH]c2ccccc12
89 | 166 to 168 | COc1ccc(CNc2nc(-c3ccccc3)c(-c3ccc(=O)n(C)n3)nc2C#N)cc1
90 | 132 to 134 | O=C(c1ccc(Cl)cc1)c1ccc2c(c1)C(=O)N(Cc1cccnc1)C2=O
91 | 134 to 138 | COC(=O)C=C(Nc1coc2cc(OC)ccc2c1=O)C(=O)OC
92 | 175 | Cc1ccc2c(c1)-n1ccc3c1=C(CCC=3)c1nccn1-2
93 | 105 to 107 | COc1ccccc1CN1CN2CCCC1C2c1ccccc1 (centres undefined)
94 | 272 | O=c1c2ccc(/C=C/c3ccc(O)cc3)cc2cnn1-c1ccccn1
95 | 248 to 251 | Cc1cc(Cl)c(Cl)cc1NC(=O)C1(C(=O)O)CC1
96 | 132 | C=CCN1C(=O)CN(c2ccc(Cc3ccccc3)cc2)C1=S
97 | 258 to 260 | COc1ccc(-c2c(NCCc3ccc(C(C)(C)C)cc3)c(=O)c2=O)cc1

Row | SMILES | melting point [°C]
98 | Clc1ccc(C2CCNCC2)cc1 | 143
99 | Fc1cccnc1N1CCC2(CC1)COOC2 | 45 to 47
100 | CCOCC(=O)C1CCC2C3CCC4CC(O)CCC4(C)C3C(=O)CC12C (centres undefined) | 129 to 131
101 | CCCc1c(C(=O)C(C)C)c2ccc(C(N)=O)cc2n1Cc1ccc(Cl)cc1F | 200 to 202
102 | O=C1c2ccccc2-n2cnc(Br)c2[C@@H]2CCCN12 | 225 to 226
103 | ClCc1cn2c(n1)CN=C(c1ccccn1)c1cc(Cl)ccc1-2 | 161
104 | CC1(C)CCC(C)(C)c2cc(-c3c[nH]c(C=O)c3)ccc21 | 211 to 212
